# Assay results taken from patent publication US20060135569A1, “Use of benzisoselenazolone compounds against ischemic myocardial damage” (priority 2002, published 2006).
# Marks after values point to notes of the source that are not given here.
# Experiments:
# TA100 = assay: Ames test, strain TA100; format: cell-based
# Protocol: (§1) To assess the mutagenic effects of 5 compounds (IMM-004; IMM-065; IMM-127; IMM-128; IMM-313), the Ames test was performed in 4 strains (TA97; TA98; TA100; TA102). The experiment was conducted with compounds at 4 concentration levels (0.5, 5, 50 and 500 μg/dish). […]
# [1] = tested on: isolated rat hearts subjected to ischemia-reperfusion (I/R); assay: Isolated heart subjected to ischemia/reperfusion injury (arrhythmia); conditions: for AAT: arrhythmic occurrence time, Time / VF (ventricular fibrillation) Incidence rate (%) / VPS (ventricular premature beats) Incidence rate (%) / VT (ventricular tachycardia) Incidence rate (%): 10^−6 M, isolated heart ischemia/reperfusion
# How it was run: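 Rat hearts perfused in vitro and subjected to ischemia-reperfusion after drug exposure. Recorded endpoints: duration of ventricular arrhythmia and incidence of ventricular extrasystole and VT/VF.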
# TA102 = assay: Ames test, strain TA102; format: cell-based
# Protocol: as §1
# KM mice = assay: Acute toxicity study in mice; format: in vivo
# Protocol: Acute toxicity studies were performed with IMM-004 and IMM-127 (synthesized by ourselves). The compound was provided as powder, which was milled and suspended in 0.5% carboxymethylcellulose sodium (CMC—Na) before use.
# Male KM mice weighting 19±2 g were housed for an adaptation before use. Mice were randomly divided into groups, and each group consists of 10 animals. Mice were all fasted for 14 hrs before the administration of the tested compounds. Activity of mice in high dose group was reduced 30 min after the administration. 24 h after the administration, mice in each group were restored to normal. Mice were observed daily for a period of 7 days after the administration.
# [2] = tested on: rats subjected to myocardial ischemia/reperfusion insult; assay: Cardiac function and hemodynamics in rats subjected to myocardial ischemia/reperfusion; format: in vivo, rat; conditions: 30 mg/kg orally
# Protocol: Method: Male SD rats weighing 300-350 g were fasted for 12 hrs and anesthetized by i.p. treatment with 20% Urethane (0.5 ml/100 g, 1 g/kg). Polyethylene tubes (PE-50) were inserted into the left femoral artery, left femoral vein, right femoral vein and the left ventricle. The left femoral artery was cannulated for blood collection, and the left femoral vein was cannulated for liquid compensation, the right femoral artery was cannulated for blood pressure detection, the left ventricle was cannulated for ventricular pressure detection, left femoral artery and ventricle were cannulated and the catheter was linked with pressure transducer by triplet. Signals were acquired by oscillograph and multi-channel biodynamic recorder linked with the pressure transducer. Rats in drug-treated group were orally treated with IMM-004 at 30 mg/kg, while rats in vehicle control group was orally treated with an equal volume of vehicle (PEG). Dissect the trachea and artificial respiration was performed via respirator after thoracotomy (2 ml/100 g). A left thoracotomy was performed from the forth to fifth intercostals space by cutting off the forth and fifth rib 2 mm from the left border of sternum, and the pericardium was opened to expose the heart. A 3.0 silk ligature was placed under the left anterior descending coronary artery. The heart was taken back to the chest and allowed to stabilize for 10 min. The ends of the suture were threaded through a polyethylene tube (3×8 mm) to form a snare. Pull the ends of the suture taut and clamp the snare with a hemostat to occlude the coronary artery. Coronary artery occlusion was verified by epicardial cyanosis and subsequent decrease in arterial blood pressure. Reprefusion of the heart was initiated via unclamping the hemostat and loosening the snare for 15 min. Left ventricular systolic pressure (LVSP), left ventricular end-diastolic pressure (LVEDP), and maximum rate of left ventricular pressure (±dp/dtmax), artery systolic pressure (SP), artery diastolic pressure (DP), mean artery pressure (MAP) and heart rate (HR) were continuously recorded every 10 min before and after thoracotomy and during the period of ischemia (15 min) and reperfusion (1 h).
# TA97 = assay: Ames test, strain TA97; format: cell-based
# Protocol: as §1
# [3] = tested on: arrhythmia induced by ischemia/reperfusion insults in anesthetized rats; assay: Ischemia/reperfusion arrhythmia in anesthetized rats, oral administration; format: in vivo, rat; conditions: for protective effect: incidence/duration of VT, VF, duration of ventricular arrhythmic / protective effect: incidence/duration of VT, duration of ventricular arrhythmic: rats; for protective effect: incidence/duration of VT, duration of ventricular arrhythmic: 100 mg/kg orally
# Protocol: IMM-004 and IMM-127 were dissolved in the solution of ethanol and PEG (ethanol: PEG (v/v)=1:9). Rats were orally administrated the compounds at volume of 10 ml/Kg. The left anterior descending coronary artery was ligated in rats for 15 min at 60 min after the administration, and then the reprefusion was achieved.
# Arrhythmic potency induced by myocardial insults was used to assess the potential protective effect of the compounds.
smiles,measurement,setting,value
"O=c1c2cc(Cl)ccc2[se]n1-c1ccccn1 [IMM-004, 5-chloro-2-(2-pyridyl)-1,2-benz-isoselenazol-3(2H)-one]",TA100 +S9,TA100; 0.5 μg/dish,191.33 ± 44.25
same,TA100 −S9,TA100; 0.5 μg/dish,121.00 ± 8.52
same,TA100 +S9,TA100; 5 μg/dish,215.33 ± 23.68
same,TA100 −S9,TA100; 5 μg/dish,58.33 ± 29.39
same,TA100 +S9,TA100; 50 μg/dish,126.00 ± 31.79
same,TA100 −S9,TA100; 50 μg/dish,89.67 ± 14.70
same,TA100 +S9,TA100; 500 μg/dish,160.00 ± 21.33
same,TA100 −S9,TA100; 500 μg/dish,78.33 ± 13.52
same,protective effects on myocardial insults,"[1]; 10^−6M, isolated heart",significant protective effects
same,"AAT: arrhythmic occurrence time, Time",[1],0.70 ± 0.33 min
same,VF (ventricular fibrillation) Incidence rate (%),[1],0** %
same,VPS (ventricular premature beats) Incidence rate (%),[1],37.5%
same,VT (ventricular tachycardia) Incidence rate (%),[1],37.5%
same,TA102 +S9,TA102; 0.5 μg/dish,328.67 ± 26.39
same,TA102 −S9,TA102; 0.5 μg/dish,164.67 ± 62.66
same,TA102 +S9,TA102; 5 μg/dish,250.67 ± 7.54
same,TA102 −S9,TA102; 5 μg/dish,218.67 ± 23.79
same,TA102 +S9,TA102; 50 μg/dish,297.33 ± 24.07
same,TA102 −S9,TA102; 50 μg/dish,52.67 ± 6.59
same,TA102 +S9,TA102; 500 μg/dish,284.00 ± 64.27
same,TA102 −S9,TA102; 500 μg/dish,16.00 ± 5.89
same,mortality in the dose groups,"KM mice; all dose groups, mice",no mortality
same,+dp/dtmax,[2],about +110 mmHg/s
same,Heart rate,[2],not influenced
same,MAP,[2],80 mmHg
same,SBP,[2],100 mmHg
same,LVSP,[2]; decreased steadily from 120 mmHg,100 mmHg
same,LVEDP,[2]; equal to the baseline,about −6 mmHg
same,−dp/dtmax,[2]; reduced from 100 mmHg/s,70 mmHg/s
same,TA97 +S9,TA97; 0.5 μg/dish,55.33 ± 24.36
same,TA97 −S9,TA97; 0.5 μg/dish,54.33 ± 4.78
same,TA97 +S9,TA97; 5 μg/dish,80.67 ± 8.58
same,TA97 −S9,TA97; 5 μg/dish,54.67 ± 4.99
same,TA97 +S9,TA97; 50 μg/dish,204.67 ± 29.41
same,TA97 −S9,TA97; 50 μg/dish,47.00 ± 5.72
same,TA97 +S9,TA97; 500 μg/dish,67.33 ± 36.59
same,TA97 −S9,TA97; 500 μg/dish,55.50 ± 3.50
same,"protective effect: incidence/duration of VT, VF, duration of ventricular arrhythmic",[3]; 10 mg/Kg orally,No protective effect
same,Occurrence time,[3]; 10 mg/Kg p.o.,9.3 ± 10.0 s
same,VE Duration time,[3]; 10 mg/Kg p.o.,4.7 ± 12.9 s
same,VE Incidence (%),[3]; 10 mg/Kg p.o.,100%
same,VF Duration time,[3]; 10 mg/Kg p.o.,8.8 ± 7.4 s
same,VF Incidence (%),[3]; 10 mg/Kg p.o.,22.2%
same,VT Duration time,[3]; 10 mg/Kg p.o.,30.2 ± 17.6 s
same,VT Incidence (%),[3]; 10 mg/Kg p.o.,88.9%
same,"protective effect: incidence/duration of VT, VF, duration of ventricular arrhythmic",[3]; 30 mg/Kg orally,all reduced
same,Occurrence time,[3]; 30 mg/Kg p.o.,19.6 ± 24.1 s
same,VE Duration time,[3]; 30 mg/Kg p.o.,0.4 ± 1.3 s
same,VE Incidence (%),[3]; 30 mg/Kg p.o.,66.7%
same,VF Duration time,[3]; 30 mg/Kg p.o.,3.3 ± 5.7 s
same,VF Incidence (%),[3]; 30 mg/Kg p.o.,11.1* %
same,VT Duration time,[3]; 30 mg/Kg p.o.,17.0 ± 12.6 s
same,VT Incidence (%),[3]; 30 mg/Kg p.o.,44.4** %
same,Occurrence time,[3]; 100 mg/Kg p.o.,16.4 ± 25.1 s
same,VE Duration time,[3]; 100 mg/Kg p.o.,5.5 ± 10.2 s
same,VE Incidence (%),[3]; 100 mg/Kg p.o.,66.7%
same,VF Duration time,[3]; 100 mg/Kg p.o.,3.9 ± 6.8 s
same,VF Incidence (%),[3]; 100 mg/Kg p.o.,33.3%
same,VT Duration time,[3]; 100 mg/Kg p.o.,22.7 ± 19.4 s
same,VT Incidence (%),[3]; 100 mg/Kg p.o.,55.5* %
same,"protective effect: incidence/duration of VT, duration of ventricular arrhythmic",[3],all reduced
"O=c1c2cc(F)ccc2[se]n1-c1ccccn1 [IMM-127, 5-fluoro-2-(2-pyridyl)-1,2-benz-isoselenazol-3(2H)-one]",TA100 +S9,TA100; 0.5 μg/dish,95.00 ± 10.23
same,TA100 −S9,TA100; 0.5 μg/dish,83.00 ± 14.14
same,TA100 +S9,TA100; 5 μg/dish,102.67 ± 21.06
same,TA100 −S9,TA100; 5 μg/dish,62.00 ± 10.80
same,TA100 +S9,TA100; 50 μg/dish,100.00 ± 6.16
same,TA100 −S9,TA100; 50 μg/dish,67.67 ± 22.05
same,TA100 +S9,TA100; 500 μg/dish,100.67 ± 4.49
same,TA100 −S9,TA100; 500 μg/dish,72.33 ± 23.67
same,"AAT: arrhythmic occurrence time, Time",[1],19.72 ± 4.42 min
same,VF (ventricular fibrillation) Incidence rate (%),[1],38%
same,VPS (ventricular premature beats) Incidence rate (%),[1],50%
same,VT (ventricular tachycardia) Incidence rate (%),[1],62.5%
same,TA102 +S9,TA102; 0.5 μg/dish,205.33 ± 17.98
same,TA102 −S9,TA102; 0.5 μg/dish,199.67 ± 17.13
same,TA102 +S9,TA102; 5 μg/dish,216.00 ± 21.42
same,TA102 −S9,TA102; 5 μg/dish,224.67 ± 16.34
same,TA102 +S9,TA102; 50 μg/dish,250.67 ± 15.43
same,TA102 −S9,TA102; 50 μg/dish,195.33 ± 35.22
same,TA102 +S9,TA102; 500 μg/dish,233.33 ± 16.11
same,TA102 −S9,TA102; 500 μg/dish,143.67 ± 19.01
same,Lethal cases,"KM mice; 5 g/kg, 10 mice per group, 7 days observation",7
same,TA97 +S9,TA97; 0.5 μg/dish,60.67 ± 3.86
same,TA97 −S9,TA97; 0.5 μg/dish,60.00 ± 8.16
same,TA97 +S9,TA97; 5 μg/dish,59.67 ± 8.18
same,TA97 −S9,TA97; 5 μg/dish,56.67 ± 13.27
same,TA97 +S9,TA97; 50 μg/dish,68.50 ± 2.50
same,TA97 −S9,TA97; 50 μg/dish,60.33 ± 3.77
same,TA97 +S9,TA97; 500 μg/dish,48.00 ± 2.16
same,TA97 −S9,TA97; 500 μg/dish,57.33 ± 6.94
same,"protective effect: incidence/duration of VT, VF, duration of ventricular arrhythmic",[3]; 10 mg/Kg orally,significantly reduced
same,Occurrence time,[3]; 10 mg/Kg p.o.,15.5 ± 21.5 s
same,VE Duration time,[3]; 10 mg/Kg p.o.,2.5 ± 6.4 s
same,VE Incidence (%),[3]; 10 mg/Kg p.o.,100%
same,VF Duration time,[3]; 10 mg/Kg p.o.,6.6 ± 7.2 s
same,VF Incidence (%),[3]; 10 mg/Kg p.o.,22.2%
same,VT Duration time,[3]; 10 mg/Kg p.o.,32.1 ± 26.1 s
same,VT Incidence (%),[3]; 10 mg/Kg p.o.,66.7%
same,"protective effect: incidence/duration of VT, VF, duration of ventricular arrhythmic",[3]; 30 mg/Kg orally,all reduced
same,Occurrence time,[3]; 30 mg/Kg p.o.,9.6 ± 9.2 s
same,VE Duration time,[3]; 30 mg/Kg p.o.,0.2 ± 0.5 s
same,VE Incidence (%),[3]; 30 mg/Kg p.o.,100%
same,VF Duration time,[3]; 30 mg/Kg p.o.,3.2 ± 5.5 s
same,VF Incidence (%),[3]; 30 mg/Kg p.o.,11.1* %
same,VT Duration time,[3]; 30 mg/Kg p.o.,18.0 ± 11.4 s
same,VT Incidence (%),[3]; 30 mg/Kg p.o.,66.7%
same,Occurrence time,[3]; 100 mg/Kg p.o.,9.0 ± 19.7 s
same,VE Duration time,[3]; 100 mg/Kg p.o.,2.2 ± 63 s
same,VE Incidence (%),[3]; 100 mg/Kg p.o.,88.9%
same,VF Duration time,[3]; 100 mg/Kg p.o.,5.1 ± 7.8 s
same,VF Incidence (%),[3]; 100 mg/Kg p.o.,22.2%
same,VT Duration time,[3]; 100 mg/Kg p.o.,31.1 ± 21.3 s
same,VT Incidence (%),[3]; 100 mg/Kg p.o.,44.4** %
same,"protective effect: incidence/duration of VT, duration of ventricular arrhythmic",[3],reduced
